Experimental findings from ChEMBL document CHEMBL3745630, “Cloning, characterization and anion inhibition studies of a γ-carbonic anhydrase from the Antarctic bacterium Colwellia psychrerythraea” (Bioorg Med Chem, 2016) are described below.

The nature of this test: Inhibition of Colwellia psychrerythraea gamma carbonic anhydrase expressed in Escherichia coli incubated for 15 mins prior to testing by stopped flow CO2 hydration method.

Structures are written as SMILES. A value given as a limit tells only on which side of the number the result lay.

Compound `F[P-](F)(F)(F)(F)F.[Na+]` showed a Ki of 5.6 mM.
With `CCN(CC)C(=S)S` [DITIOCARB SODIUM] the figure was 0.58 mM.
With `O=[As](O)(O)c1ccccc1` [PHENYLARSONIC ACID] the figure was 0.038 mM.
With `OB(O)c1ccccc1` [PHENYLBORONIC ACID] the figure was 0.026 mM; with `[N-]=[N+]=[N-]` [SODIUM AZIDE], above 100 mM; with `O=C([O-])O.[Na+]` [SODIUM BICARBONATE], 1.7 mM.
In turn, `O=S([O-])O.[Na+]` [SODIUM BISULFITE] showed a Ki of 37.5 mM.
With `[Br-].[Na+]` [SODIUM BROMIDE] the figure was above 100 mM; with `O=C([O-])[O-].[Na+].[Na+]` [SODIUM CARBONATE], 1.4 mM.
With `S=C(S)S` [SODIUM CARBONOTRITHIOATE] the figure was 3.8 mM; with `[Cl-].[Na+]` [SODIUM CHLORIDE], 9 mM; with `N#CO` [SODIUM CYANATE], 2.5 mM.
With `[F-].[Na+]` [SODIUM FLUORIDE] the figure was above 100 mM.
`S` [SODIUM HYDROSULFIDE]: the Ki was found to be 4.8 mM.
`[I-].[Na+]` [SODIUM IODIDE]: the affinity corresponds to a Ki of 8.7 mM.
Consider `N=C=[Se]` [SODIUM ISOSELENOCYANATE], for which the Ki stood at 6 mM.
With `N=C=S` [SODIUM ISOTHIOCYANATE] the figure was 3.3 mM; with `O=[N+]([O-])[O-].[Na+]` [SODIUM NITRATE], 21.7 mM.
With `O=NO` [SODIUM NITRITE] the figure was 8.8 mM; with `[O-][Cl+3]([O-])([O-])O` [SODIUM PERCHLORATE], above 100 mM.
Take `O=S(=O)(O)OOS(=O)(=O)O` [SODIUM PERSULFATE]: the affinity corresponds to a Ki of 4.5 mM.
For the compound `O=[Se](=O)(O)O` [SODIUM SELENATE], the affinity corresponds to a Ki of 8.3 mM.
With `O=S(=O)([O-])[O-].[Na+].[Na+]` [SODIUM SULFATE ANHYDROUS] the figure was 9.4 mM; with `O=[Te](=O)(O)O` [SODIUM TELLURATE], 5.1 mM.
In turn, `O=BOB(O)OB(O)OB=O` [SODIUM TETRABORATE] had a Ki of 4.7 mM.
With `F[B-](F)(F)F.[Na+]` [SODIUM TETRAFLUOROBORATE] the figure was above 100 mM; with `NS(=O)(=O)O` [SULFAMATE], 0.037 mM; with `NS(N)(=O)=O` [SULFAMIDE], 0.008 mM.

The term Ki denotes the dissociation constant of the complex between target and ligand, obtained from inhibition or displacement.
